{"source": "PubChem BioAssay AID1259334", "about": "(Broad Institute, 2017)", "note": "Calls of active or inactive are those of the source. No stated cut-off is given here; in the data, active means AC50 below about 11 µM. Numbered stars: 1 amine (or outer) side, 2 acyl side, 3 side chain; on linkers, the order of the positions; unused ones are H or OH. Bridge positions count the residues as written; N and C are the ends. Square brackets hold non-standard residues; d marks the D form. Peptide text beside a SMILES is read from it. I, II: the chains in the order shown. * marks the point of attachment. Actinocin(9to1) = Cc1c2oc3c(C)ccc(C(=O)[*:1])c3nc-2c(C(=O)[*:2])c(N)c1=O; NMeV = CN[CH](C(=O)O)C(C)C; Cbz = O=C(OCc1ccccc1)*; Sar = CNCC(=O)O"}
{"tested_on": "B cell line, TNFa signaling counterscreen reporter", "experiment": "TNFa signaling inhibitors in B cell line, dose response, counter-screen (AID 1259334);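 further: cells stimulated with TNFa after compound preincubation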"}
{"smiles": "COc1cccc(S(=O)(=O)N(C)C[C@@H]2OCc3ccccc3-c3c(n(C)c4ccccc34)C(=O)N([C@@H](C)CO)C[C@@H]2C)c1", "AC50": "> 20 µM (inactive)"}
{"smiles": "COc1cc2c(cc1OC)C(=O)C(Br)CC2", "note": "(stereo not given)", "AC50": "2.97 µM"}
{"smiles": "C[C@H](CO)N1C[C@H](C)[C@H](CN(C)CC2CCCCC2)OCCCC[C@H](C)Oc2ccc(NC(=O)Nc3ccc(C(F)(F)F)cc3)cc2C1=O", "AC50": "7.26 µM"}
{"smiles": "OC1(c2ccc(Cl)c(C(F)(F)F)c2)CCN(CCCC(c2ccc(F)cc2)c2ccc(F)cc2)CC1", "AC50": "8.99 µM"}
{"smiles": "C[C@@H]1CN([C@@H](C)CO)C(=O)c2ccccc2-c2ccccc2CO[C@@H]1CN(C)C(=O)c1cc(Cl)cc(Cl)c1", "AC50": "> 20 µM (inactive)"}
{"smiles": "CC1=CC2OC3CC4OC(=O)C=CC=CC(=O)OCCC(C)C(O)C(=O)OCC2(CC1O)C4(C)C31CO1", "note": "(stereo not given)", "AC50": "0.00511 µM"}
{"smiles": "CC12CCC3C(CCC4(O)CC(O)CCC34C=O)C1(O)CCC2C1=CC(=O)OC1", "note": "(stereo not given)", "AC50": "3.75 µM"}
{"smiles": "CN(C)C(=S)SSC(=S)N(C)C", "AC50": "0.0358 µM"}
{"smiles": "C[C@@H]1CN([C@@H](C)CO)C(=O)c2c(c3ccccc3n2C)-c2ccccc2CO[C@@H]1CN(C)Cc1ccccc1C(F)(F)F", "AC50": "> 20 µM (inactive)"}
{"smiles": "O=[N+]([O-])c1ccc(N2CCOCC2)c2c1no[n+]2[O-]", "AC50": "6.5 µM"}
{"smiles": "Cc1cc(C)cc(N2C(=O)CC(Sc3nnnn3-c3ccccc3)C2=O)c1", "note": "(stereo not given)", "AC50": "0.728 µM"}
{"smiles": "Cc1c2oc3c(C)ccc(C(=O)OC(C)C4NC(=O)C(C(C)C)N(C)C(=O)CN(C)C(=O)C5CCCN5C(=O)C(C(C)C)NC4=O)c3nc-2c(C(=O)OC(C)C2NC(=O)C(C(C)C)N(C)C(=O)CN(C)C(=O)C3CCCN3C(=O)C(C(C)C)NC2=O)c(N)c1=O", "note": "(stereo not given) (I: cyclo([Sar][NMeV]TVP) / II: cyclo([Sar][NMeV]TVP); linker I:3-II:3 via Actinocin(9to1); configuration not given here)", "AC50": "0.00519 µM"}
{"smiles": "COc1ccc(CC2C(=O)NC(C)C(=O)N(C)C3Cc4ccc(cc4)Oc4cc(ccc4O)CC(C(=O)NC(C)C(=O)NC(C)C(=O)N2C)N(C)C3=O)cc1", "note": "(stereo not given)", "AC50": "0.00464 µM"}
{"smiles": "CC1CC(C)(O)CC(C(O)CC2CC(=O)NC(=O)C2)C1=O", "note": "(stereo not given)", "AC50": "0.0899 µM"}
{"smiles": "COc1ccc(S(=O)(=O)N(C)C[C@H]2Oc3ccc(NC(=O)Nc4ccc(C(F)(F)F)cc4)cc3C(=O)N([C@@H](C)CO)C[C@@H]2C)cc1", "AC50": "> 20 µM (inactive)"}
{"smiles": "CCOc1ncccc1C(=O)OC(C)C(=O)Nc1ccc(Cl)cn1", "note": "(stereo not given)", "AC50": "10.3 µM"}
{"smiles": "O=C1NC2C(O)C(O)C(O)C(O)C2c2cc3c(c(O)c21)OCO3", "note": "(stereo not given)", "AC50": "0.125 µM"}
{"smiles": "CC(C)(C)[S@](=O)N1Cc2cc(C(=O)NCC(F)(F)F)nc(-c3cccc(-c4cccc(F)c4)c3)c2[C@@H]1CCO", "AC50": "> 20 µM (inactive)"}
{"smiles": "COc1cccc(-c2cc(=O)c3cc(OC)ccc3o2)c1", "AC50": "3.07 µM"}
{"smiles": "C[C@@H]1CN([C@@H](C)CO)S(=O)(=O)c2ccc(C#Cc3ccccc3F)cc2O[C@H]1CN(C)C(=O)Cc1cccnc1", "AC50": "> 20 µM (inactive)"}
{"smiles": "CC(C)c1c(O)ccc2c1CCC1C(C)(C)CCC[C@]21C", "note": "(stereo not given in full)", "AC50": "5.43 µM"}
{"smiles": "CC1OC(CC(=O)O)CC2=C1C(=O)c1c(O)cccc1C2=O", "note": "(stereo not given)", "AC50": "0.0869 µM"}
{"smiles": "O=C(COc1cccnc1[N+](=O)[O-])c1ccc(Cl)s1", "AC50": "4.71 µM"}
{"smiles": "Cc1ccc2c(c1)C(O)(CC(=O)/C=C/C=C/c1ccccc1)C(=O)N2", "note": "(stereo not given)", "AC50": "> 20 µM (inactive)"}
{"smiles": "COc1ccc(S(=O)(=O)N(C)C[C@H]2Oc3ccc(NC(=O)Nc4ccc(C(F)(F)F)cc4)cc3C(=O)N([C@H](C)CO)C[C@H]2C)cc1", "AC50": "8.38 µM"}
{"smiles": "CC1(C)C(=O)C=C[C@@]2(C)C1C=C[C@]1(C)C2CC[C@@]2(C)[C@H](c3ccoc3)OC(=O)[C@H]3O[C@]321", "note": "(stereo not given in full)", "AC50": "4.98 µM"}
{"smiles": "CC1(C)C(=O)C=C[C@@]2(C)C1C(=O)C(=O)[C@]1(C)C2CC[C@@]2(C)[C@H](c3ccoc3)C[C@H]3O[C@]321", "note": "(stereo not given in full)", "AC50": "1.74 µM"}
{"smiles": "N#C[C@H]1[C@H](c2ccc(C#Cc3ccccc3F)cc2)[C@@H](CO)N1C(=O)C1CCC1", "AC50": "> 20 µM (inactive)"}
{"smiles": "C[C@H]1CN([C@@H](C)CO)C(=O)c2c(c3ccccc3n2C)-c2ccccc2CO[C@@H]1CN(C)Cc1cccc(C(F)(F)F)c1", "AC50": "8.42 µM"}
{"smiles": "Cc1ccc2nc(C(F)(F)F)c(C#N)c(N)c2c1", "AC50": "7.61 µM"}
{"smiles": "c1ccc(-c2ccc(-c3ccccn3)nn2)nc1", "AC50": "6.99 µM"}
{"smiles": "CC(C)(C)c1cc(C=C(C#N)C#N)cc(C(C)(C)C)c1O", "AC50": "1.22 µM"}
{"smiles": "Cc1[nH]c2ccccc2c1C(c1ccccn1)N1CCC(C(N)=O)CC1", "note": "(stereo not given)", "AC50": "6 µM"}
{"smiles": "C[C@H]1O[C@@H](O[C@H]2[C@@H](O)C[C@H](O[C@H]3[C@@H](O)C[C@H](O[C@H]4CC[C@]5(C)C6CC[C@]7(C)[C@@H](C8=CC(=O)OC8)CC[C@]7(O)C6CC[C@@H]5C4)O[C@@H]3C)O[C@@H]2C)C[C@H](O)[C@@H]1O", "note": "(stereo not given in full)", "AC50": "0.444 µM"}
{"smiles": "CC(C)C[C@@H](C=O)NC(=O)[C@H](CC(C)C)NC(=O)[C@H](CC(C)C)NC(=O)OCc1ccccc1", "note": "(Cbz-Leu-Leu-Leu-aldehyde)", "AC50": "3.82 µM"}
{"smiles": "CCCCCCCCCCCCCCCC[n+]1ccccc1", "AC50": "0.119 µM"}
{"smiles": "Cc1ccnc(NC(=O)c2ccc(OCC3CCCO3)cc2)c1", "note": "(stereo not given)", "AC50": "5.1 µM"}
{"smiles": "COc1ccc(-c2ccc([C@H]3[C@@H](C#N)N(C(=O)c4cccc(F)c4)[C@H]3CO)cc2)cc1", "AC50": "> 22 µM (inactive)"}
{"smiles": "O=C(Nc1ccc2c(c1)OCCO2)C1CCCC1", "AC50": "1.76 µM"}
{"smiles": "COc1ccc(CN2CC3(CN(C(=O)Cc4ccccc4)C3)c3c([nH]c4cc(OC)ccc34)[C@@H]2CO)cc1", "AC50": "> 20 µM (inactive)"}
